Publication PMC7671475 (Journal of Inflammation Research, 2020)

Target: Syk (spleen tyrosine kinase) (Homo sapiens, UniProt P43405)
Test: ADP-Glo kinase assay with Promega Syk Kinase Enzyme System
Type: biochemical

Row | SMILES | IC50 [nM]
1 | O=C(/C=C/c1ccc(O)c(O)c1)O[C@H](Cc1ccc(O)c(O)c1)C(=O)O [RosA, rosmarinic acid] | 114
2 | CC1=CC(=O)CC(C)(C)[C@@]1(O)/C=C/[C@@H](C)O[C@@H]1O[C@H](CO)[C@@H](O)[C@H](O)[C@H]1O [RosS, roseoside] | 160
3 | O=c1cc(-c2ccc(O)cc2)oc2c([C@@H]3O[C@H](CO)[C@@H](O)[C@H](O)[C@H]3O)c(O)c([C@@H]3O[C@H](CO)[C@@H](O)[C@H](O)[C@H]3O)c(O)c12 [Vic-2, vicenin-2] | 284
